# Measurements as given in ChEMBL document CHEMBL4390659, “Molecular hybridization approach for phenothiazine incorporated 1,2,3-triazole hybrids as promising antimicrobial agents: Design, synthesis, molecular docking and in silico ADME studies” (Eur J Med Chem, 2019).
# Columns and labels:
# Escherichia coli = assay: Antibacterial activity against Escherichia coli incubated for 24 hrs by agar dilution method; type: functional
# Pseudomonas aeruginosa = assay: Antibacterial activity against Pseudomonas aeruginosa incubated for 24 hrs by agar dilution method; type: functional
# [1] = test system: Mycobacterium tuberculosis; assay: Antibacterial activity against Mycobacterium tuberculosis H37Rv ATCC 27294 assessed as reduction in mycobacterial growth incubated for 5 days by MABA method; type: functional; conditions: H37Rv ATCC 27294, 120 h
# Staphylococcus aureus = assay: Antibacterial activity against Staphylococcus aureus incubated for 24 hrs by agar dilution method; type: functional
# [2] = test system: Mycobacterium tuberculosis; assay: Potency index, ratio of streptomycin MIC to test compound MIC against Mycobacterium tuberculosis H37Rv ATCC 27294; type: functional
# Vero = assay: Cytotoxicity against African green monkey Vero cells assessed as reduction in cell viability incubated for 72 hrs by MTT assay; type: cell-based; conditions: Chlorocebus sabaeus
# [3] = test system: Mycobacterium tuberculosis; assay: Potency index, ratio of ciprofloxacin MIC to test compound MIC against Mycobacterium tuberculosis H37Rv ATCC 27294; type: functional
# [4] = Selectivity index, ratio of IC50 for African green monkey Vero cells to MIC for Mycobacterium tuberculosis H37Rv ATCC 27294; type: toxicity; conditions: read-out: Selectivity Index
# [5] = Cytotoxicity against African green monkey Vero cells assessed as cell growth inhibition at 6.25 ug/ml incubated for 72 hrs by MTT assay relative to control; type: cell-based; conditions: chlorocebus sabaeus, read-out: GI
# [6] = test system: Mycobacterium tuberculosis; assay: Potency index, ratio of pyrazinamide MIC to test compound MIC against Mycobacterium tuberculosis H37Rv ATCC 27294; type: functional
smiles,measurement,setting,value
Cc1ccc(Cn2cc(COCc3ccc4c(c3)Sc3ccccc3N4C)nn2)cc1,MIC,Escherichia coli,100 µg/mL
same,MIC,Pseudomonas aeruginosa,100 µg/mL
same,MIC,[1],58.3 µM
same,MIC,Staphylococcus aureus,50 µg/mL
N#Cc1ccc(Cn2cc(CN3c4ccc(/C=N/NC(=O)c5ccccc5)cc4Sc4ccc(C(F)(F)F)cc43)nn2)cc1,MIC,Escherichia coli,50 µg/mL
same,MIC,Pseudomonas aeruginosa,50 µg/mL
same,Ratio,[2],4
same,IC50,Vero,552 µg/mL
same,MIC,[1],2.62 µM
same,Ratio,[3],4
same,selectivity ratio,[4],44.7
same,"inhibition at 72 h, 6.25 ug/ml",[5],12.3%
same,MIC,Staphylococcus aureus,50 µg/mL
N#Cc1ccc(Cn2cc(CN3c4ccccc4Sc4ccccc43)nn2)cc1,MIC,Escherichia coli,12.5 µg/mL
same,MIC,Pseudomonas aeruginosa,12.5 µg/mL
same,Ratio,[2],4
same,IC50,Vero,1320 µg/mL
same,MIC,[1],1.6 µg/mL
same,Ratio,[3],4
same,selectivity ratio,[4],119
same,"inhibition at 72 h, 6.25 ug/ml",[5],11.1%
same,MIC,Staphylococcus aureus,6.25 µg/mL
same,Ratio,[6],2
CN1c2ccccc2Sc2cc(COCc3cn(Cc4ccccc4)nn3)ccc21,MIC,Escherichia coli,50 µg/mL
same,MIC,Pseudomonas aeruginosa,100 µg/mL
same,MIC,[1],60.3 µM
same,MIC,Staphylococcus aureus,50 µg/mL
CN1c2ccccc2Sc2cc(COCc3cn(Cc4ccccc4F)nn3)ccc21,MIC,Escherichia coli,25 µg/mL
same,MIC,Pseudomonas aeruginosa,50 µg/mL
same,MIC,[1],28.9 µM
same,MIC,Staphylococcus aureus,25 µg/mL
Cc1ccc(C(=O)N/N=C/c2ccc3c(c2)Sc2ccccc2N3Cc2cn(Cc3ccc(C#N)cc3)nn2)cc1,MIC,Escherichia coli,50 µg/mL
same,MIC,Pseudomonas aeruginosa,100 µg/mL
same,Ratio,[2],4
same,IC50,Vero,456 µg/mL
same,MIC,[1],2.87 µM
same,Ratio,[3],4
same,selectivity ratio,[4],42.9
same,"inhibition at 72 h, 6.25 ug/ml",[5],10.6%
same,MIC,Staphylococcus aureus,25 µg/mL
N#Cc1ccc(Cn2cc(CN3c4ccc(/C=N/NC(=O)c5ccc(F)cc5)cc4Sc4ccc(C(F)(F)F)cc43)nn2)cc1,MIC,Escherichia coli,12.5 µg/mL
same,MIC,Pseudomonas aeruginosa,12.5 µg/mL
same,Ratio,[2],4
same,IC50,Vero,647 µg/mL
same,MIC,[1],2.55 µM
same,Ratio,[3],4
same,selectivity ratio,[4],76.8
same,"inhibition at 72 h, 6.25 ug/ml",[5],8.42%
same,MIC,Staphylococcus aureus,6.25 µg/mL
same,Ratio,[6],2
CN1c2ccccc2Sc2cc(/C=N/OCc3cn(Cc4ccc(F)cc4)nn3)ccc21,MIC,Escherichia coli,25 µg/mL
same,MIC,Pseudomonas aeruginosa,25 µg/mL
same,MIC,[1],56.1 µM
same,MIC,Staphylococcus aureus,12.5 µg/mL
COc1ccc(Cn2cc(COCc3ccc4c(c3)Sc3ccccc3N4C)nn2)cc1,MIC,Escherichia coli,100 µg/mL
same,MIC,Pseudomonas aeruginosa,50 µg/mL
same,MIC,[1],56.2 µM
same,MIC,Staphylococcus aureus,50 µg/mL
Cc1ccc(C(=O)N/N=C/c2ccc3c(c2)Sc2ccc(C(F)(F)F)cc2N3Cc2cn(Cc3ccc(C#N)cc3)nn2)cc1,MIC,Escherichia coli,50 µg/mL
same,MIC,Pseudomonas aeruginosa,50 µg/mL
same,Ratio,[2],4
same,IC50,Vero,1570 µg/mL
same,MIC,[1],2.56 µM
same,Ratio,[3],4
same,selectivity ratio,[4],250
same,"inhibition at 72 h, 6.25 ug/ml",[5],6.28%
same,MIC,Staphylococcus aureus,25 µg/mL
same,Ratio,[6],2
CN1c2ccccc2Sc2cc(/C=N/OCc3cn(Cc4ccccc4F)nn3)ccc21,MIC,Escherichia coli,25 µg/mL
same,MIC,Pseudomonas aeruginosa,25 µg/mL
same,MIC,[1],56.1 µM
same,MIC,Staphylococcus aureus,12.5 µg/mL
Fc1ccccc1Cn1cc(CN2c3ccccc3Sc3ccccc32)nn1,MIC,Escherichia coli,12.5 µg/mL
same,MIC,Pseudomonas aeruginosa,25 µg/mL
same,Ratio,[2],4
same,IC50,Vero,924 µg/mL
same,MIC,[1],1.6 µg/mL
same,Ratio,[3],4
same,selectivity ratio,[4],278
same,"inhibition at 72 h, 6.25 ug/ml",[5],3.33%
same,MIC,Staphylococcus aureus,12.5 µg/mL
same,Ratio,[6],2
CN1c2ccccc2Sc2cc(COCc3cn(Cc4ccc([N+](=O)[O-])cc4)nn3)ccc21,MIC,Escherichia coli,50 µg/mL
same,MIC,Pseudomonas aeruginosa,50 µg/mL
same,MIC,[1],54.4 µM
same,MIC,Staphylococcus aureus,25 µg/mL
Cc1ccc(Cn2cc(CN3c4ccccc4Sc4ccccc43)nn2)cc1,MIC,Escherichia coli,100 µg/mL
same,MIC,Pseudomonas aeruginosa,100 µg/mL
same,MIC,[1],6.25 µg/mL
same,MIC,Staphylococcus aureus,50 µg/mL
CN1c2ccccc2Sc2cc(COCc3cn(Cc4ccc(F)cc4)nn3)ccc21,MIC,Escherichia coli,25 µg/mL
same,MIC,Pseudomonas aeruginosa,50 µg/mL
same,MIC,[1],28.9 µM
same,MIC,Staphylococcus aureus,25 µg/mL
CN1c2ccccc2Sc2cc(COCc3cn(Cc4ccc(C#N)cc4)nn3)ccc21,MIC,Escherichia coli,25 µg/mL
same,MIC,Pseudomonas aeruginosa,25 µg/mL
same,MIC,[1],28.4 µM
same,MIC,Staphylococcus aureus,12.5 µg/mL
CN1c2ccccc2Sc2cc(/C=N/OCc3cn(Cc4ccccc4)nn3)ccc21,MIC,Escherichia coli,100 µg/mL
same,MIC,Pseudomonas aeruginosa,50 µg/mL
same,MIC,[1],58.4 µM
same,MIC,Staphylococcus aureus,50 µg/mL
N#Cc1ccc(Cn2cc(CN3c4ccccc4Sc4ccc(C(F)(F)F)cc43)nn2)cc1,Ratio,[2],4
same,IC50,Vero,2080 µg/mL
same,MIC,[1],1.6 µg/mL
same,Ratio,[3],4
same,selectivity ratio,[4],417
same,"inhibition at 72 h, 6.25 ug/ml",[5],5%
same,Ratio,[6],2
O=[N+]([O-])c1ccc(Cn2cc(CN3c4ccccc4Sc4ccccc43)nn2)cc1,MIC,Escherichia coli,50 µg/mL
same,MIC,Pseudomonas aeruginosa,100 µg/mL
same,Ratio,[2],4
same,IC50,Vero,484 µg/mL
same,MIC,[1],1.6 µg/mL
same,Ratio,[3],4
same,selectivity ratio,[4],42.5
same,"inhibition at 72 h, 6.25 ug/ml",[5],11.4%
same,MIC,Staphylococcus aureus,50 µg/mL
same,Ratio,[6],2
COc1ccc(Cn2cc(CN3c4ccccc4Sc4ccccc43)nn2)cc1,MIC,Escherichia coli,25 µg/mL
same,MIC,Pseudomonas aeruginosa,50 µg/mL
same,Ratio,[2],4
same,IC50,Vero,6040 µg/mL
same,MIC,[1],1.6 µg/mL
same,Ratio,[3],4
same,selectivity ratio,[4],797
same,"inhibition at 72 h, 6.25 ug/ml",[5],7.57%
same,MIC,Staphylococcus aureus,25 µg/mL
same,Ratio,[6],2
Fc1ccc(Cn2cc(CN3c4ccccc4Sc4ccccc43)nn2)cc1,MIC,Escherichia coli,12.5 µg/mL
same,MIC,Pseudomonas aeruginosa,12.5 µg/mL
same,IC50,Vero,3800 µg/mL
same,MIC,[1],3.12 µg/mL
same,selectivity ratio,[4],456
same,"inhibition at 72 h, 6.25 ug/ml",[5],8.34%
same,MIC,Staphylococcus aureus,12.5 µg/mL
N#Cc1ccc(Cn2cc(CN3c4ccccc4Sc4cc(/C=N/NC(=O)c5cccnc5)ccc43)nn2)cc1,MIC,Escherichia coli,25 µg/mL
same,MIC,Pseudomonas aeruginosa,50 µg/mL
same,Ratio,[2],4
same,IC50,Vero,1610 µg/mL
same,MIC,[1],2.94 µM
same,Ratio,[3],4
same,selectivity ratio,[4],192
same,"inhibition at 72 h, 6.25 ug/ml",[5],8.42%
same,MIC,Staphylococcus aureus,12.5 µg/mL
CN1c2ccccc2Sc2cc(/C=N/OCc3cn(Cc4ccc([N+](=O)[O-])cc4)nn3)ccc21,MIC,Escherichia coli,50 µg/mL
same,MIC,Pseudomonas aeruginosa,100 µg/mL
same,MIC,[1],52.9 µM
same,MIC,Staphylococcus aureus,25 µg/mL
CN1c2ccccc2Sc2cc(/C=N/OCc3cn(Cc4ccc(C#N)cc4)nn3)ccc21,MIC,Escherichia coli,25 µg/mL
same,MIC,Pseudomonas aeruginosa,25 µg/mL
same,MIC,[1],27.6 µM
same,MIC,Staphylococcus aureus,12.5 µg/mL
Cc1ccc(Cn2cc(CO/N=C/c3ccc4c(c3)Sc3ccccc3N4C)nn2)cc1,MIC,Escherichia coli,50 µg/mL
same,MIC,Pseudomonas aeruginosa,100 µg/mL
same,MIC,[1],56.6 µM
same,MIC,Staphylococcus aureus,25 µg/mL
c1ccc(Cn2cc(CN3c4ccccc4Sc4ccccc43)nn2)cc1,MIC,Escherichia coli,50 µg/mL
same,MIC,Pseudomonas aeruginosa,100 µg/mL
same,MIC,[1],6.25 µg/mL
same,MIC,Staphylococcus aureus,50 µg/mL
COc1ccc(Cn2cc(CO/N=C/c3ccc4c(c3)Sc3ccccc3N4C)nn2)cc1,MIC,Escherichia coli,100 µg/mL
same,MIC,Pseudomonas aeruginosa,100 µg/mL
same,MIC,[1],54.6 µM
same,MIC,Staphylococcus aureus,50 µg/mL
O=C(O)c1cn(C2CC2)c2cc(N3CCNCC3)c(F)cc2c1=O [CIPROFLOXACIN],MIC,Pseudomonas aeruginosa,4 µg/mL
same,MIC,Staphylococcus aureus,2 µg/mL
NNC(=O)c1ccncc1 [ISONIAZID],MIC,[1],3.12 µg/mL
NC(=O)c1cnccn1 [PYRAZINAMIDE],MIC,[1],3.12 µg/mL
CN[C@@H]1[C@H](O[C@H]2[C@H](O[C@H]3[C@H](O)[C@@H](O)[C@H](N=C(N)N)[C@@H](O)[C@@H]3N=C(N)N)O[C@@H](C)[C@]2(O)C=O)O[C@@H](CO)[C@H](O)[C@H]1O [STREPTOMYCIN],MIC,[1],6.25 µg/mL
